ChEMBL document CHEMBL1129169, “Preparation of N-methoxycarbonyl-N-[2-nitro-4(5)-propylthiophenyl]thiourea as prodrugs of albendazole” (1996)
Several values for one entry are separate records, joined by “and”; a condition that tells them apart may be missing. Equal values may be shown once.

Columns and labels:
Rattus norvegicus [1] = species on record: Rattus norvegicus; experiment: Bioconversion to albendazole in rats at 6 hr; not detectable; type: functional, organism-based
Rattus norvegicus [2] = species on record: Rattus norvegicus; experiment: Bioconversion to albendazole in rats at 2 hr; detectable; type: functional, organism-based
Rattus norvegicus [3] = species on record: Rattus norvegicus; experiment: Bioconversion to albendazole sulfonic in rats at 10 hr; not detectable; type: functional, organism-based
Rattus norvegicus [4] = species on record: Rattus norvegicus; experiment: Bioconversion to albendazole sulfonic in rats at 6 hr; not detectable; type: functional, organism-based
Rattus norvegicus [5] = species on record: Rattus norvegicus; experiment: Bioconversion to albendazole sulfonic in rats at 12 hr; type: functional
Rattus norvegicus [6] = species on record: Rattus norvegicus; experiment: Bioconversion to albendazole in rats at 8 hr; detectable; type: functional, organism-based
Rattus norvegicus [7] = species on record: Rattus norvegicus; experiment: Bioconversion to albendazole in rats at 4 hr; not detectable; type: functional, organism-based
Rattus norvegicus [8] = species on record: Rattus norvegicus; experiment: Bioconversion to albendazole in rats at 6 hr; detectable; type: functional, organism-based
Rattus norvegicus [9] = species on record: Rattus norvegicus; experiment: Bioconversion to albendazole sulfonic in rats at 2 hr; type: functional
Rattus norvegicus [10] = species on record: Rattus norvegicus; experiment: Bioconversion to albendazole sulfonic in rats at 6 hr; type: functional
Rattus norvegicus [11] = species on record: Rattus norvegicus; experiment: Bioconversion to albendazole in rats at 12 hr; detectable; type: functional, organism-based
Rattus norvegicus [12] = species on record: Rattus norvegicus; experiment: Bioconversion to albendazole in rats at 10 hr; detectable; type: functional, organism-based
Rattus norvegicus [13] = species on record: Rattus norvegicus; experiment: Bioconversion to albendazole sulfonic in rats at 8 hr; not detectable; type: functional, organism-based
Rattus norvegicus [14] = species on record: Rattus norvegicus; experiment: Bioconversion to albendazole sulfonic in rats at 4 hr; type: functional
Rattus norvegicus [15] = species on record: Rattus norvegicus; experiment: Bioconversion to albendazole in rats at 4 hr; detectable; type: functional, organism-based
Rattus norvegicus [16] = species on record: Rattus norvegicus; experiment: Bioconversion to albendazole sulfonic in rats at 10 hr; type: functional
Rattus norvegicus [17] = species on record: Rattus norvegicus; experiment: Bioconversion to albendazole in rats at 2 hr; type: functional
Rattus norvegicus [18] = species on record: Rattus norvegicus; experiment: Bioconversion to albendazole sulfonic in rats at 8 hr; type: functional
Rattus norvegicus [19] = species on record: Rattus norvegicus; experiment: Bioconversion to albendazole in rats at 12 hr; type: functional
Rattus norvegicus [20] = species on record: Rattus norvegicus; experiment: Bioconversion to albendazole sulfonic in rats at 4 hr; not detectable; type: functional, organism-based
Rattus norvegicus [21] = species on record: Rattus norvegicus; experiment: Bioconversion to albendazole in rats at 12 hr; not detectable; type: functional, organism-based
Rattus norvegicus [22] = species on record: Rattus norvegicus; experiment: Bioconversion to albendazole sulfonic in rats at 12 hr; not detectable; type: functional, organism-based
Rattus norvegicus [23] = species on record: Rattus norvegicus; experiment: Bioconversion to albendazole in rats at 8 hr; type: functional
Rattus norvegicus [24] = species on record: Rattus norvegicus; experiment: Bioconversion to albendazole sulfonic in rats at 8 hr; detectable; type: functional, organism-based
Rattus norvegicus [25] = species on record: Rattus norvegicus; experiment: Bioconversion to albendazole in rats at 2 hr; not detectable; type: functional, organism-based
Rattus norvegicus [26] = species on record: Rattus norvegicus; experiment: Bioconversion to albendazole sulfonic in rats at 2 hr; not detectable; type: functional, organism-based
Rattus norvegicus [27] = species on record: Rattus norvegicus; experiment: Bioconversion to albendazole in rats at 8 hr; not detectable; type: functional, organism-based

Row | SMILES | Activity (Rattus norvegicus [2]) | Activity (Rattus norvegicus [3]) | Activity (Rattus norvegicus [4]) | Activity (Rattus norvegicus [5]) | Activity (Rattus norvegicus [6]) | Activity (Rattus norvegicus [7]) | Activity (Rattus norvegicus [8]) | Activity (Rattus norvegicus [9]) | Activity (Rattus norvegicus [10]) | Activity (Rattus norvegicus [11]) | Activity (Rattus norvegicus [12]) | Activity (Rattus norvegicus [13]) | Activity (Rattus norvegicus [14]) | Activity (Rattus norvegicus [16]) | further results
1 | CCCSc1ccc(NC(=S)NC(=O)OC)c([N+](=O)[O-])c1 | Detectable | Not detectable | Not detectable | 0.2704 µg/mL | Detectable | Not detectable | Detectable | 0.1802 µg/mL and 0.1088 µg/mL | 0.1633 µg/mL | Detectable | Detectable | Not detectable | 0.0927 µg/mL and 0.0958 µg/mL | – | Activity (Rattus norvegicus [1]): Not detectable
2 | CCCSc1ccc2[nH]c(NC(=O)OC)nc2c1 [ALBENDAZOLE] | Detectable | – | – | – | Detectable | – | Detectable | 0.593 µg/mL and 0.245 µg/mL | 0.2875 µg/mL and 0.4081 µg/mL | Detectable | Detectable | – | 0.3084 µg/mL and 0.1935 µg/mL | 0.2696 µg/mL and 0.1297 µg/mL | Activity (Rattus norvegicus [15]): Detectable; Activity (Rattus norvegicus [17]): 0.055 µg/mL; Activity (Rattus norvegicus [18]): 0.28 µg/mL and 0.1113 µg/mL; Activity (Rattus norvegicus [19]): 0.098 µg/mL
3 | CCCSc1ccc([N+](=O)[O-])c(NC(=S)NC(=O)OC)c1 | – | Not detectable | Not detectable | 0.1622 µg/mL | – | Not detectable | – | – | – | – | Detectable | Not detectable | 0.096 µg/mL | 0.0889 µg/mL | Activity (Rattus norvegicus [20]): Not detectable; Activity (Rattus norvegicus [21]): Not detectable; Activity (Rattus norvegicus [22]): Not detectable; Activity (Rattus norvegicus [23]): 0.0792 µg/mL; Activity (Rattus norvegicus [24]): Detectable; Activity (Rattus norvegicus [25]): Not detectable; Activity (Rattus norvegicus [26]): Not detectable; Activity (Rattus norvegicus [27]): Not detectable
